According to patent US20230399324A1, “AGENTS FOR TREATING DISORDERS INVOLVING RYANODINE RECEPTORS” (ARMGO Pharma, Inc., priority 2020, published 2023):
Several values for one entry are separate records, joined by “and”; a condition that tells them apart may be missing. Equal values may be shown once. Entries after “also recorded” stand apart in the source; their conditions may differ. Read-outs that look alike come from different tables or passages of the source.

Legend:
[1] = system: cardiomyocytes isolated from mouse heart; test: Inhibition of unstimulated calcium release events in cardiomyocytes (isoproterenol-induced); type: cell-based, C57BL/6 mice; conditions: Cardiomyocyte, 10 μM compound, isoproterenol 1 uM, percent inhibition of controls B vs A
Description: Compounds of the disclosure were evaluated for an effect on isoproterenol-induced inhibition of unstimulated calcium release events in cardiomyocytes isolated from mouse heart.
Adult cardiomyocytes are isolated from female, 28-32 grams C57BL/6 mice using a perfusion solution containing Liberase TH (Sigma Aldrich, #05-401-151001). After isolation, Ca^2+ is reintroduced in 5 steps at 4 min intervals. Then cells are plating (Time Cero) with a density of 5000-7000 rod cells in 100 μl of Cardiomyocyte Culture Medium (MEM, Invitrogen, #11575-032) containing Blebbistatin and compound treatment at various concentrations (0.01 to 10 uM). After 1 hrs of compound treatment cells are treated with Isoproterenol (1 uM). After 2 hrs of compound treatment cells are loaded with a Ca^2+ indicator (Fluo-4-AM, Invitrogen #F14202). After 3 hrs of compound treatment MEM is quickly but gently removed and the cells re-suspended in recording solution (Ca^2+ 2 mM, Isoproterenol 1 uM) for field stimulations using custom-designed electrodes. Cells are stimulated for 20 seconds at 0.5 Hz, then for 5 seconds at 5 Hz.
One Study=3 experiments. One experiment=1 mouse. Each experiment has 3 controls in triplicate: • A) Ca^2+ • B) Ca^2++Isoproterenol • C) Ca^2++Isoproterenol+Control Compound.
The first step in the analysis is to determine the number of responders based on four conditions. Responders are then analyzed to determine the number of unstimulated calcium release events, which are peaks of sufficient intensity, measured in the post-5 Hz stimulation period. Effect of test compounds (Ca^2++Isoproterenol+Test Compound in triplicate) are expressed as a percent inhibition of the controls B vs A.
All compounds were tested at 10 μM.

RyR2 [2] = target: T1, RyR2 (Homo sapiens, UniProt Q92736); test: biochemical
Target sequence in this assay (Q92736 whole entry): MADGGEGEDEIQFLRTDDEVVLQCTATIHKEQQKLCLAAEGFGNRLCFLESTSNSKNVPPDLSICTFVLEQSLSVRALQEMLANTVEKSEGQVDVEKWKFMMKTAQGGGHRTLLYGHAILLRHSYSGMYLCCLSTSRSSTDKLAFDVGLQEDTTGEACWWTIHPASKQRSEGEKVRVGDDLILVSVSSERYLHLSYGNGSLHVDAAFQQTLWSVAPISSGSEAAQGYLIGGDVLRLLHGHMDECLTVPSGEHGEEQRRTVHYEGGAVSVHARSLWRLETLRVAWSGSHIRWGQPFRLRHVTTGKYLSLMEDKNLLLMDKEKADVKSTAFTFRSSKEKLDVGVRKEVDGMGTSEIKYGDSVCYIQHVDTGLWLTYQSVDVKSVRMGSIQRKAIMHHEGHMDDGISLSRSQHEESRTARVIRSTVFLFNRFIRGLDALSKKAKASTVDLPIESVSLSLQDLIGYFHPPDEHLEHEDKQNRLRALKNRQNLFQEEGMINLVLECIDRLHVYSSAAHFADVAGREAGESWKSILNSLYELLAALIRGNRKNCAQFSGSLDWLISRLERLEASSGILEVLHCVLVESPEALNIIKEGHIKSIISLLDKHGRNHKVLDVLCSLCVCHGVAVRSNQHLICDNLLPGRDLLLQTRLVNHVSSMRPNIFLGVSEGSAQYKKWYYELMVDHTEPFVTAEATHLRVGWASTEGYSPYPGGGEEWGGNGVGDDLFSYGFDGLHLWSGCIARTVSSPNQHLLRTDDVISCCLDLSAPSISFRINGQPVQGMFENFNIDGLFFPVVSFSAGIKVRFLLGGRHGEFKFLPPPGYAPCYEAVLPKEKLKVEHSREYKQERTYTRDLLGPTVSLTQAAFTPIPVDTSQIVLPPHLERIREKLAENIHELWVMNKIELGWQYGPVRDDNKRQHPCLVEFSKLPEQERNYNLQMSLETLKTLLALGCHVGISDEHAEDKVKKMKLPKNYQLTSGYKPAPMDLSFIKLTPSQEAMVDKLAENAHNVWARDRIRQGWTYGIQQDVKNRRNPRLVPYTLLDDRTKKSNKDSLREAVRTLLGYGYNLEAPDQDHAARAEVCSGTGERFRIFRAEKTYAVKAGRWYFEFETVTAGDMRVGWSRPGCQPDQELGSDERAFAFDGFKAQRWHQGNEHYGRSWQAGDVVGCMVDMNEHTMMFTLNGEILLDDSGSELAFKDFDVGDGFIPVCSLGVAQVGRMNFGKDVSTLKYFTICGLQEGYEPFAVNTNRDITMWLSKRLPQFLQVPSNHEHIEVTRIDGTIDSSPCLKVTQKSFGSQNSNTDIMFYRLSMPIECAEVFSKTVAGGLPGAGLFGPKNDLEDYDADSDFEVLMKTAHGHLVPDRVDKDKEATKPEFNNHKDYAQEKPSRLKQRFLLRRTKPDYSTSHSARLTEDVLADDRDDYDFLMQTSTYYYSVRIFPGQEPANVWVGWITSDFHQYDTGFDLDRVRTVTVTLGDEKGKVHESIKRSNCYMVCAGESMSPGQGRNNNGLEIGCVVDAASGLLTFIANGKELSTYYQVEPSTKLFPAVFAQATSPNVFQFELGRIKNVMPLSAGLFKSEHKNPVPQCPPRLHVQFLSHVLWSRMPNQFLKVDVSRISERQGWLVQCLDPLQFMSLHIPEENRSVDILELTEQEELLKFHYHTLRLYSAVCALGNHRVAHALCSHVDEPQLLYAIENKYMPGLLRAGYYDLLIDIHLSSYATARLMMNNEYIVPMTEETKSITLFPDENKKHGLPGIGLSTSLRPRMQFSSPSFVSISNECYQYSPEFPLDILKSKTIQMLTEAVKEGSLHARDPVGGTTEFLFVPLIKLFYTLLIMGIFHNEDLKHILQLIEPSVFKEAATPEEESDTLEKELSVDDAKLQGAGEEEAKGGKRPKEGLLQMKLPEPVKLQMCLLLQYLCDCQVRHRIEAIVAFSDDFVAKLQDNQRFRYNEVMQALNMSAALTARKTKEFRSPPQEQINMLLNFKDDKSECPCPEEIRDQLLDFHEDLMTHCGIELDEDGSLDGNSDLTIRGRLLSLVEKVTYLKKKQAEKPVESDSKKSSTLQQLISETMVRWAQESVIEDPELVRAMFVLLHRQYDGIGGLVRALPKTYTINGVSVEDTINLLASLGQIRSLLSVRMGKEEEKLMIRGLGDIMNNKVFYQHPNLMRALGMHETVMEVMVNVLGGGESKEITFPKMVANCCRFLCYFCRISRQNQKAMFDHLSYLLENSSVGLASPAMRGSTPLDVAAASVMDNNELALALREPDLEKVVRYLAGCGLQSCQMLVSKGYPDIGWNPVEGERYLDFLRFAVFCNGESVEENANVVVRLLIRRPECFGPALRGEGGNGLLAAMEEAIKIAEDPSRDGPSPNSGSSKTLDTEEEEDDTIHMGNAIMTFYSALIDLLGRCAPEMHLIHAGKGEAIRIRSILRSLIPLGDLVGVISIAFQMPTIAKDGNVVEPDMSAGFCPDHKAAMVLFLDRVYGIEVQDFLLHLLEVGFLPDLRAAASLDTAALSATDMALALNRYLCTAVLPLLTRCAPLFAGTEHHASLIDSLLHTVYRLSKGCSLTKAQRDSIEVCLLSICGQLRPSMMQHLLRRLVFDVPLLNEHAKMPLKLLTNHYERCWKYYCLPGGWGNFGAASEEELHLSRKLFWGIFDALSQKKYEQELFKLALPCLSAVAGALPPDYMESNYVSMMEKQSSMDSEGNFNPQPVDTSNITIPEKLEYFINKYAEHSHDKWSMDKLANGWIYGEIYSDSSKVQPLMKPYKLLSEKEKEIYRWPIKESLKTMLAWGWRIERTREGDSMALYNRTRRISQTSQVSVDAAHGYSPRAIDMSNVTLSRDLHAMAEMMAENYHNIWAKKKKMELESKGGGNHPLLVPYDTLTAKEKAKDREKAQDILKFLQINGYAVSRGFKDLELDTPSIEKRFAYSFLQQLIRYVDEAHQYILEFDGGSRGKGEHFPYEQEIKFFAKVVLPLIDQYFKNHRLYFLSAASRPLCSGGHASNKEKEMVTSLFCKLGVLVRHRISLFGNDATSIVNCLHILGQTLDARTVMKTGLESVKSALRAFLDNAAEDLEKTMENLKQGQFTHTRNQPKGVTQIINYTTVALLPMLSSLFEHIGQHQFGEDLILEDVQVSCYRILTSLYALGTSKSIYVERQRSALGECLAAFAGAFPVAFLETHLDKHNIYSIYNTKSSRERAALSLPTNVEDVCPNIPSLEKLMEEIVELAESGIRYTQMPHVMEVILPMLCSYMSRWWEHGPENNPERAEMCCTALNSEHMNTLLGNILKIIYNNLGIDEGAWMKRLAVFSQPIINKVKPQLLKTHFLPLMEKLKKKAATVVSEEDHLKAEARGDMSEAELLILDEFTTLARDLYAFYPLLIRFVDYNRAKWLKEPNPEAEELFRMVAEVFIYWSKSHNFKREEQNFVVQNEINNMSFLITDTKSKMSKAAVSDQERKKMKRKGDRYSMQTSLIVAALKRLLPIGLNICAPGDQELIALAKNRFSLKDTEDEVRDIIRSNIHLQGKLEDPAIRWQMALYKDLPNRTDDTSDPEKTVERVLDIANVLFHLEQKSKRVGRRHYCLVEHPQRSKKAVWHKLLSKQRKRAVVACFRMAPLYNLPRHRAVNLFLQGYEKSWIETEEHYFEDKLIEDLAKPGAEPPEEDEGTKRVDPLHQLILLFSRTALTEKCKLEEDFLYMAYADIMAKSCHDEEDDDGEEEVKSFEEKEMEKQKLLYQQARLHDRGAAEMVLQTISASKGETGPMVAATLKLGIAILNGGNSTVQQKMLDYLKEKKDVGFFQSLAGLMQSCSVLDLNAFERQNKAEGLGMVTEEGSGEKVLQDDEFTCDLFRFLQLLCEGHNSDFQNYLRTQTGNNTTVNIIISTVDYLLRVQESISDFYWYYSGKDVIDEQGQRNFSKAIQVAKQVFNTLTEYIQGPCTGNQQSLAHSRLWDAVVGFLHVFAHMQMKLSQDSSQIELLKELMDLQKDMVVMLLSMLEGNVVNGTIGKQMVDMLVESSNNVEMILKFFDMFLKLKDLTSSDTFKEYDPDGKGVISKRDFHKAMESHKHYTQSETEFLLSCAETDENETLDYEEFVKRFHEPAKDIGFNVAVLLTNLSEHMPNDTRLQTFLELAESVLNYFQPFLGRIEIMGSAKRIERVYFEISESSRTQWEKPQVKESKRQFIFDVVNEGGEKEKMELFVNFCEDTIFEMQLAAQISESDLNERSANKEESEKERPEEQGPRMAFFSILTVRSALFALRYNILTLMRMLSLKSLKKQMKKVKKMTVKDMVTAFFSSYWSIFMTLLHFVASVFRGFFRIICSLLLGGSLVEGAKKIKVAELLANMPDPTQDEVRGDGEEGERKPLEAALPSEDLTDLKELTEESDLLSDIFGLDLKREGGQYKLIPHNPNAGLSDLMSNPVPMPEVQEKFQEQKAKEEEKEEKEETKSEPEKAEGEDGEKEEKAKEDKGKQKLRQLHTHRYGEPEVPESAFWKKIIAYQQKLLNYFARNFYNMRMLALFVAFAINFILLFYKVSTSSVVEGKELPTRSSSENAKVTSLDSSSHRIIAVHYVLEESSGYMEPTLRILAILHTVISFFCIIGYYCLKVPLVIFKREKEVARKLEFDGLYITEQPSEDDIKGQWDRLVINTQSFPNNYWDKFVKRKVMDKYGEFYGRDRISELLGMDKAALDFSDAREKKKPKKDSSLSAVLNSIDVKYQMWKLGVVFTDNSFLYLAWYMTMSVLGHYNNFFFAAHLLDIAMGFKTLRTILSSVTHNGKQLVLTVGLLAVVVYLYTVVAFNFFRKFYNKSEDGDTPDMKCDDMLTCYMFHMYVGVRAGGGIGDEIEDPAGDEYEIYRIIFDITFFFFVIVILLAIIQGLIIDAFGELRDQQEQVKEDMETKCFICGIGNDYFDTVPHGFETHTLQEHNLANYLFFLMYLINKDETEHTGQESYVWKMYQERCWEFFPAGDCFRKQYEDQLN
Target sequence in this assay (P68106 whole entry, further chain): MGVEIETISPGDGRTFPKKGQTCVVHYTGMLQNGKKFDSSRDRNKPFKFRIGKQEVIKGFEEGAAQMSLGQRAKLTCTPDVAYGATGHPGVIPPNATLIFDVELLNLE

[3] = Oral bioavailability and pharmacokinetics in blood plasma after oral gavage; type: in vivo, Sprague-Dawley rats; conditions: Sprague-Dawley; for Cmax: po
Description: (§1) Analytical instrument: Waters Acquity Class H UPLC equipped with Waters SQ3100 mass detector.
1). Initial non-terminal assessment of compound oral bioavailability and pharmacokinetics in blood plasma.
Sprague-Dawley rats were dosed via oral gavage (20 mg/kg); blood samples were drawn at 30 min, 1 h, 4 h and 12 h and plasma concentrations were determined via UPLC/MS. The 12-hour exposure (AUC12, Table 2) was determined via trapezoidal integration of the observed concentrations.
(§2) The concentration results were used to estimate PK parameters (i.e. C0, T1/2, Vd, AUCinf) based on noncompartmental distribution and mono-exponential concentration decay. The half-life value thus obtained was also used to estimate the AUCinf for the PO dosing.

RyR2 [4] = target: T1, RyR2; test: Calstabin2 binding to RyR2 immunoprecipitated from human HD cortex lysate (immunoblot); conditions: FIG. 1
Description: Brain microsomes were prepared from human hippocampus and cortex samples taken from HD patients. Control samples were from patients that were negative in neuropathological diagnoses.
RyR2 was immunoprecipitated from Cortex lysate (+/−various concentrations of Compound 2) with an RyR2 specific antibody (2 μg) in 0.5 ml of a modified RIPA buffer (50 mM Tris-HCl pH 7.2 0.9% NaCl, 5.0 mM NaF, 1.0 mM Na3VO4, 1% Triton-X100, and protease inhibitors) and left overnight at 4° C. The immune complexes were incubated with protein A Sepharose beads at 4° C. for 1 h and the beads are washed three times with RIPA buffer. […] Immunoblots were developed using antibodies against RyR and Calstabin.

[5] = Morning and evening plasma and brain exposure after 1-week dosing in drinking water; type: in vivo; conditions: rat; for Brain / Plasma: 1 week
RyR = RyR mediated calcium leak from human HD cortex microsomes (Fluo-4, thapsigargin); type: biochemical; conditions: thapsigargin 3 μM, FIG. 3
Description: Human cortex Microsomes (5 μg/ml) were diluted into a 20 mM HEPES buffer (pH 7.2) containing 7 mM NaCl, 1.5 mM MgCl2, 120 mM K-gluconate, 5 mM K-phosphate, 8 mM K-phosphocreatine, 1 μM EGTA and 2 μM CaCl2) mixed with 3 μM Fluo-4 and added to multiple wells of a 96-well plate. Calcium (Ca^2+) loading of the microsomes was initiated by adding 1 mM ATP. After Ca^2+ uptake, 3 μM thapsigargin was added. (A)—Representative traces of Ca^2+ leak from Human cortex microsomes induced by addition of thapsigargin (3 μM). (B)—Ca^2+ leak was calculated as the percent increase in signal after addition of thapsigargin. Data (mean±SEM) analysis was performed by Student t-test (n=2 for each group) **P<0.01.

[6] = Pharmacokinetics by intravenous (IV) dosing (tail vein); type: in vivo, rat
Description: Additional PK parameters were obtained using IV dosing to complement the oral PK data and to determine absolute oral bioavailability. Compounds were administered via tail vein injection and blood samples were obtained at 30 min, 1 h, 4 h and 12h. The drug concentration in plasma was determined via UPLC/MS.
as §2

[7] = Brain exposure: brain and plasma concentrations 4 h after oral administration; type: in vivo; conditions: Sprague-Dawley, rat, PO 20 mg/kg; for concentration at 4 h: terminal sampling
Description: as §1
Brain and plasma concentrations 4 h after oral administration (corresponding to Tmax in the first experiment) were determined via UPLC/MS, and the corresponding brain-to-plasma ratio values were calculated.

RyR2 [8] = target: T1, RyR2; test: 35S-labelled Calstabin2 binding to human HD cortex microsomes, dose curve; conditions: FIG. 2
Target sequence in this assay (Q92736 whole entry): as the sequence (Q92736 whole entry) above
Target sequence in this assay (P68106 whole entry, further chain): as the sequence (P68106 whole entry, further chain) above

[9] = 5 mg/kg/day in drinking water, 7:00AM, 5 mg/kg/day
[10] = 5 mg/kg/day in drinking water, 7:00PM, 5 mg/kg/day
[11] = 20 mg/kg/day in drinking water, 7:00AM, 20 mg/kg/day
[12] = 20 mg/kg/day in drinking water, 7:00PM, 20 mg/kg/day

Question: With `O=C(N1CCNCC1)N1CCSc2cccc(C(F)(F)F)c2C1` [Compound 5, piperazin-1-yl(6-(trifluoromethyl)-2,3-dihydrobenzo[f][1,4]thiazepin-4(5H)-yl)methanone] as the compound, how does the inhibition at 10 µM [1] read?
Answer: 92%

Question: For `O=C(N1CCNCC1)N1CCSc2ccc(OC(F)(F)F)cc2C1` [Compound 4, piperazin-1-yl(7-(trifluoromethoxy)-2,3-dihydrobenzo[f][1,4]thiazepin-4(5H)-yl)methanone], which inhibition at 10 µM [1] is on record?
Answer: 142%

Question: For `O=C(N1CCNCC1)N1CCSc2c(cccc2C(F)(F)F)C1` [Compound 3, piperazin-1-yl(9-(trifluoromethyl)-2,3-dihydrobenzo[f][1,4]thiazepin-4(5H)-yl)methanone], which inhibition at 10 µM [1] is on record?
Answer: 85%

Question: With `O=C(N1CCNCC1)N1CCSc2ccc(C(F)(F)F)cc2C1` [Compound 2, piperazin-1-yl(7-(trifluoromethyl)-2,3-dihydrobenzo[f][1,4]thiazepin-4(5H)-yl) methanone] as the compound, how does the EC50 (RyR2 [2]) read?
Answer: 100 nM

Question: And the inhibition at 10 µM [1]?
Answer: 86 to 94%

Question: And the AUC(0-inf) ([3]; rat, plasma, oral, 20 mg/kg)?
Answer: 2730 ng·h/mL

Question: What about the Cmax ([3]; rat, plasma, 20 mg/kg, rat plasma, PO 20 mg/kg, Table 4 summary, read-out: Cmax C4 h) of the same compound?
Answer: 320 ng/mL

Question: What about the Cmax ([3]; rat, plasma, 20 mg/kg, rat plasma, PO 20 mg/kg, read-out: Cmax) of the same compound?
Answer: 210 ng/mL and 610 nM

Question: What about the Tmax ([3]; rat plasma, PO 20 mg/kg) of the same compound?
Answer: 4 h

Question: What about the AUC(0-t) ([3]; rat plasma, PO 20 mg/kg, 12 h, trapezoidal, read-out: AUCt (12 h)) of the same compound?
Answer: 2090 ng·h/mL and 6.06 µM·h

Question: And the “Calstabin2/RyR2 binding in HD brain microsome lysates” value (RyR2 [4])?
Answer: improves Calstabin2/RyR2 binding; also recorded: improves Calstabin rebinding to RyR2

Question: What about the Brain [5, 9] of the same compound?
Answer: 0.50 ± 0.12 μg/g and 1.44 ± 0.36 μM

Question: What about the Plasma [5, 9] of the same compound?
Answer: 0.09 ± 0.03 μg/mL and 0.25 ± 0.08 μM

Question: And the Brain [5, 10]?
Answer: 0.12 ± 0.08 μg/g and 0.36 ± 0.22 μM

Question: And the Plasma [5, 10]?
Answer: 0.02 ± 0.01 μg/mL and 0.07 ± 0.02 μM

Question: What about the Brain [5, 11] of the same compound?
Answer: 3.05 ± 0.71 μg/g and 8.82 ± 2.05 μM

Question: And the Plasma [5, 11]?
Answer: 0.42 ± 0.02 μg/mL and 1.22 ± 0.05 μM

Question: What about the Brain [5, 12] of the same compound?
Answer: 1.20 ± 0.96 μg/g and 3.48 ± 2.79 μM

Question: What about the Plasma [5, 12] of the same compound?
Answer: 0.20 ± 0.12 μg/mL and 0.58 ± 0.36 μM

Question: And the “brain exposure after a week of dosing” value ([5]; 1 week in drinking water)?
Answer: has brain exposure

Question: What about the “plasma and tissue exposure levels, morning versus evening” value ([5]; 1 week in drinking water) of the same compound?
Answer: higher in the morning than in the evening

Question: And the “calcium leak from HD microsomes” value (RyR)?
Answer: decreases calcium leak from HD microsomes

Question: What about the Vd ([6]; plasma, rat, IV bolus 2 mg/kg) of the same compound?
Answer: 10.9 L/kg

Question: What about the half-life ([6]; plasma, rat, IV bolus 2 mg/kg, read-out: T½ (converted)) of the same compound?
Answer: 2.77 h

Question: What about the AUC(0-inf) ([6]; rat plasma, IV bolus 2 mg/kg) of the same compound?
Answer: 736 ng·h/mL

Question: And the concentration at 30 min ([6]; rat plasma, IV bolus 2 mg/kg, 30 min, read-out: C 1st time (30 min))?
Answer: 180 ng/mL

Question: And the “F % PO/IV bolus” value ([6]; rat, PO 20 mg/kg vs IV bolus 2 mg/kg)?
Answer: 37%

Question: What about the concentration at 4 h ([7]; brain, read-out: Brain C4 h) of the same compound?
Answer: 2160 ng/g and 6.25 µM

Question: What about the Kp at 4 h ([7]; brain/plasma) of the same compound?
Answer: 5.1

Question: And the concentration at 4 h ([7]; plasma, read-out: Plasma C4 h)?
Answer: 420 ng/mL and 1.22 µM

Question: What about the “Calstabin2 binding to HD microsomes, concentration dependence” value (RyR2 [8]) of the same compound?
Answer: increase Calstabin2 binding to HD microsomes in a concentration dependent manner

Question: For `O=C(N1CCNCC1)N1CCSc2cccc(Cl)c2C1` [Compound 7, (6-chloro-2,3-dihydrobenzo[f][1,4]thiazepin-4(5H)-yl)(piperazin-1-yl)methanone], which inhibition at 10 µM [1] is on record?
Answer: 89%

Question: Which inhibition at 10 µM [1] does the source give for `O=C(N1CCNCC1)N1CCSc2cccc(I)c2C1` [Compound 10, (6-iodo-2,3-dihydrobenzo[f][1,4]thiazepin-4(5H)-yl)(piperazin-1-yl)methanone] here?
Answer: 74%

Question: Which inhibition at 10 µM [1] does the source give for `O=C(N1CCNCC1)N1CCSc2cccc(Br)c2C1` [Compound 9, (6-bromo-2,3-dihydrobenzo[f][1,4]thiazepin-4(5H)-yl)(piperazin-1-yl)methanone] here?
Answer: 89%

Question: Which inhibition at 10 µM [1] does the source give for `O=C(N1CCNCC1)N1CCSc2cc(F)c(F)cc2C1` [Compound 6, (7,8-difluoro-2,3-dihydrobenzo[f][1,4]thiazepin-4(5H)-yl)(piperazin-1-yl)methanone] here?
Answer: 71%

Question: With `O=C(N1CCNCC1)N1CCSc2cccc(OC(F)(F)F)c2C1` [Compound 8, piperazin-1-yl(6-(trifluoromethoxy)-2,3-dihydrobenzo[f][1,4]thiazepin-4(5H)-yl)methanone] as the compound, how does the inhibition at 10 µM [1] read?
Answer: 80%

Question: For `O=C(N1CCNCC1)N1CCSc2cc(C(F)(F)F)ccc2C1` [Compound 1, piperazin-1-yl(8-(trifluoromethyl)-2,3-dihydrobenzo[f][1,4]thiazepin-4(5H)-yl)methanone], which inhibition at 10 µM [1] is on record?
Answer: 95 to 96%

Question: With `COc1ccc2c(c1)CN(C)CCS2` [Compound S107, reference compound] as the compound, how does the “Calstabin2 binding to HD microsomes, concentration dependence” value (RyR2 [8]) read?
Answer: increase Calstabin2 binding to HD microsomes in a concentration dependent manner
